From patent publication US20120135923A1, “Use of Melanocortins to Treat Dyslipidemia” (IPSEN PHARMA, S.A.S., priority 2009, published 2012)
Read-outs that look alike come from different tables or passages of the source. Bridge positions count the residues as written; N and C are the ends. Square brackets hold non-standard residues; d marks the D form. Peptide text beside a SMILES is read from it. d2Nal = N[C@H](Cc1ccc2ccccc2c1)C(=O)O; Bta = N[C@@H](Cc1csc2ccccc12)C(=O)O; Nle = CCCC[C@H](N)C(=O)O; Ava = NCCCCC(=O)O; βAla = NCCC(=O)O

Columns and labels:
hMC5-R [1] = target: T1, hMC5-R (Homo sapiens, UniProt P33032); test: Radioligand binding assay, [125I]-NDP-α-MSH competition, CHO-K1 membranes
T1 construct: expressed in transfected cells; host or cells: CHO-K1
T1 sequence (P33032 whole entry): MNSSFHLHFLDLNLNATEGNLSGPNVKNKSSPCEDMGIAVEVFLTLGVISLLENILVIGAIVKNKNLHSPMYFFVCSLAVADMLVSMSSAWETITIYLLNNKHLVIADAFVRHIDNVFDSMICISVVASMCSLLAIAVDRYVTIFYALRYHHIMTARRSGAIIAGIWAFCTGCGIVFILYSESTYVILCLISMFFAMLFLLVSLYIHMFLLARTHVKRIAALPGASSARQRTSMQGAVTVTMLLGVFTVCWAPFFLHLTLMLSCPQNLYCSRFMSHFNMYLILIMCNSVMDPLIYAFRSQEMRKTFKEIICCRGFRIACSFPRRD
Experimental: Cellular membranes used for the in vitro receptor binding assays were obtained from transgenic CHO-K1 cells stably expressing hMC-R receptor subtypes 1, 3, 4 or 5. […] The pellets were resuspended in the same buffer and centrifuged at 50,000 g for 10 minutes at approximately 4° C. The washed pellets containing the cellular membranes were stored at approximately −80° C.
Cell membranes (1-10 μg protein/well) prepared as described above were incubated in 50 mM Tris-HCl at pH 7.4 containing 0.2% bovine serum albumin (BSA), 5 mM MgCl2, 1 mM CaCl2 and 0.1 mg/mL bacitracin, with increasing concentrations of the test compound and 0.1-0.3 nM [^25I]-NDP-α-MSH for approximately 90-120 minutes at approximately 37° C. […] Filters were washed three times with 50 mM Tris-HCl at pH 7.4 at a temperature of approximately 0-4° C. and then assayed for radioactivity using a Packard Topcount® scintillation counter. Binding data were analyzed by computer-assisted non-linear regression analysis (XL fit; IDBS).

hMC1-R = target: T2, hMC1-R (Homo sapiens, UniProt Q01726); test: cyclic AMP bioassay (ECL) in CHO-K1 cells; format: cell-based
T2 construct: expressed in transfected cells; host or cells: CHO-K1
T2 sequence (Q01726 whole entry): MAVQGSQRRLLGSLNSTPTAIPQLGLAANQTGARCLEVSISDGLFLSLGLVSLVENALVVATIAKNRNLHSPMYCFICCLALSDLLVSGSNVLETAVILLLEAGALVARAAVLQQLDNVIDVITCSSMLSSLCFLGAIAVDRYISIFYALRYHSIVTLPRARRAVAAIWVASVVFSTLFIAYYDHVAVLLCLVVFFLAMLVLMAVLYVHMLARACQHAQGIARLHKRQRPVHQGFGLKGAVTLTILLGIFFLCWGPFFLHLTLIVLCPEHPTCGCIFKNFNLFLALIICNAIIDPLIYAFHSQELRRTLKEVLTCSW

hMC3-R = target: T3, hMC3-R (Homo sapiens, UniProt P41968); test: cyclic AMP bioassay (ECL) in CHO-K1 cells; format: cell-based
T3 construct: expressed in transfected cells; host or cells: CHO-K1
T3 sequence (P41968 whole entry): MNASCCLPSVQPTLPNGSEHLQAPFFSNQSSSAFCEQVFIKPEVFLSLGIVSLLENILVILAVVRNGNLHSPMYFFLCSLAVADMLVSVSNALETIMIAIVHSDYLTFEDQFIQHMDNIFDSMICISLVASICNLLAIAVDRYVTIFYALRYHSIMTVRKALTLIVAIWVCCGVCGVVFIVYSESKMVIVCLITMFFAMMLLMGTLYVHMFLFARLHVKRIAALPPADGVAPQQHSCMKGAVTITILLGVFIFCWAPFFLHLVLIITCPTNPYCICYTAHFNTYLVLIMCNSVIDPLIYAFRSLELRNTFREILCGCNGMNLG

hMC4-R = target: T4, hMC4-R (Homo sapiens, UniProt P32245); test: cyclic AMP bioassay (ECL) in CHO-K1 cells; format: cell-based
T4 construct: expressed in transfected cells; host or cells: CHO-K1
T4 sequence (P32245 whole entry): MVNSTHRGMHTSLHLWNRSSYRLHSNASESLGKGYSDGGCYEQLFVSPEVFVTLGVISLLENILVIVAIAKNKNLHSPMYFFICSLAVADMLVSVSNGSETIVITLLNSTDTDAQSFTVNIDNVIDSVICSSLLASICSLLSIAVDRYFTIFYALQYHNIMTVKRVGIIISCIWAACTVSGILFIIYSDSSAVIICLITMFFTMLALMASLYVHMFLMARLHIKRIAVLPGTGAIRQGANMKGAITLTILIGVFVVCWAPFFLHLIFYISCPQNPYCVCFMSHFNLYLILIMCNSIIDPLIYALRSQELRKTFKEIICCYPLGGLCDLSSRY
Experimental: Intracellular cyclic AMP (cAMP) levels were determined by an electrochemiluminescence (ECL) assay (Meso Scale Discovery®, Gaithersburg, Md.; referred to hereinafter as MSD). […] Transgenic CHO-K1 cells stably expressing hMC receptor subtypes 1, 3, 4 or 5 were dispensed at a density of approximately 7,000 cells/well in 384-well Multi-Array®plates (MSD) containing integrated carbon electrodes and coated with anti-cAMP antibody. Increasing concentrations of the test compounds were added and the cells were incubated for approximately 40 minutes at approximately 37° C. […] At the end of the second incubation period read buffer (Tris-buffered solution containing an ECL co-reactant and Triton X-100 at ph 7.8) was added and the cAMP levels in the cell lysates were immediately determined by ECL detection with a Sector Imager 6000 Reader® (MSD). Data were analyzed using a computer-assisted non-linear regression analysis (XL fit; IDBS) and reported as either an EC50 value or a Kb value.
The Kb value reflects the potency of an antagonist and is determined by Schild analysis. In brief, concentration-response curves of an agonist are carried out in the presence of increasing concentrations of an antagonist. […] It is calculated by extrapolating the line on a Schild plot to zero on the y-axis.

hMC5-R [2] = target: T1, hMC5-R; test: cyclic AMP bioassay (ECL) in CHO-K1 cells; format: cell-based
[3] = Table 9A/9B, read-out: EC50 hMC1-R
[4] = Table 9A/9B, read-out: EC50 hMC3-R
[5] = Table 9A/9B, read-out: EC50 hMC4-R
[6] = Table 9A/9B, read-out: EC50 hMC5-R

Compound	EC50 (hMC1-R) [nM]	Kb (hMC3-R) [nM]	Kb (hMC4-R) [nM]	EC50 (hMC5-R [2]) [nM]	EC50 (hMC1-R; [3]) [nM]	EC50 (hMC3-R; [4]) [nM]	EC50 (hMC4-R; [5]) [nM]	EC50 (hMC5-R [2]; [6]) [nM]	also measured
CC(=O)N[C@H]1CSSC[C@@H](C(=O)N2CCC[C@H]2C(=O)N2CCC[C@H]2C(=O)N[C@@H](CCCCN)C(=O)N[C@@H](CC(=O)O)C(=O)NCCC(=O)NCC(=O)N[C@@H](CCCNC(=N)N)C(=O)N[C@@H](CCCCN)C(=O)N[C@@H](CCCNC(=N)N)C(=O)N[C@@H](CCCNC(=N)N)C(=O)N[C@@H](CCCNC(=N)N)C(=O)N[C@@H](CCC(N)=O)C(=O)N[C@@H](CCCNC(=N)N)C(=O)N[C@@H](CCCNC(=N)N)C(=O)N[C@@H](CCCNC(=N)N)C(N)=O)NC(=O)[C@H](C)NC(=O)[C@H](Cc2csc3ccccc23)NC(=O)[C@H](CCCNC(=N)N)NC(=O)[C@@H](Cc2ccc3ccccc3c2)NC(=O)[C@H](Cc2c[nH]cn2)NC(=O)[C@H](CCC(=O)O)NC1=O	32.2	98.3	5.23	194	–	–	–	–	Ki (hMC5-R [1]; Ki hMC5-R, Table 6): 15.5 nM
CC(=O)N[C@H]1CSSC[C@@H](C(=O)N2CCC[C@H]2C(=O)N2CCC[C@H]2C(=O)N[C@@H](CCCCN)C(=O)N[C@@H](CC(=O)O)C(=O)NCCC(=O)N[C@@H](Cc2ccc(O)cc2)C(=O)NCC(=O)N[C@@H](CCCNC(=N)N)C(=O)N[C@@H](CCCNC(=N)N)C(=O)N[C@@H](CCCCN)C(=O)N[C@@H](CCCNC(=N)N)C(=O)N[C@@H](CCCNC(=N)N)C(=O)N[C@@H](CCC(N)=O)C(=O)N[C@@H](CCCNC(=N)N)C(=O)N[C@@H](CCCNC(=N)N)C(=O)N[C@@H](CCCNC(=N)N)C(N)=O)NC(=O)[C@H](C)NC(=O)[C@H](Cc2csc3ccccc23)NC(=O)[C@H](CCCNC(=N)N)NC(=O)[C@@H](Cc2ccc3ccccc3c2)NC(=O)[C@H](Cc2c[nH]cn2)NC(=O)[C@H](CCC(=O)O)NC1=O	19.8	37.8	8.43	158	–	–	–	–	–
N=C(N)NCCC[C@@H]1NC(=O)[C@@H](Cc2ccccc2)NC(=O)[C@H](Cc2cnc[nH]2)NC(=O)[C@H](CCC(=O)O)NC(=O)[C@@H](NC(=O)[C@H](CCCNC(=N)N)N2C(=O)CNC2=O)CSSC[C@@H](C(N)=O)NC(=O)[C@H](Cc2c[nH]c3ccccc23)NC1=O [Hydantoin(C(O)-(Gly-Arg))-c(Cys-Glu-His-D-Phe-Arg-Trp-Cys)-NH2]	–	–	–	–	–	–	–	–	EC50 (hMC1-R; Table 11, read-out: EC50 hMC1): 9.97 nM; EC50 (hMC3-R; Table 11, read-out: EC50 hMC3): 3.63 nM; EC50 (hMC4-R; Table 11, read-out: EC50 hMC4): 0.0687 nM; EC50 (hMC5-R [2]; Table 11, read-out: EC50 hMC5): 335 nM
CCCC[C@H](NC(C)=O)C(=O)N[C@H]1CC(=O)NCCCC[C@@H](C(N)=O)NC(=O)CCNC(=O)[C@H](Cc2c[nH]c3ccccc23)NC(=O)[C@H](CCCNC(=N)N)NC(=O)[C@@H](Cc2ccccc2)NC(=O)[C@H](Cc2c[nH]cn2)NC1=O [Ac-Nle-c(Asp-His-D-Phe-Arg-Trp-β-Ala-Lys)-NH2]	–	–	–	–	0.834	0.145	0.128	2.79	–
CC(=O)N[C@H](CCCNC(=N)N)C(=O)N[C@H]1CSSC[C@@H](C(N)=O)NC(=O)[C@H](Cc2c[nH]c3ccccc23)NC(=O)[C@H](CCCNC(=N)N)NC(=O)[C@@H](Cc2ccccc2)NC(=O)[C@H](Cc2c[nH]cn2)NC(=O)[C@@H](C)NC1=O [Ac-D-Arg-c(Cys-D-Ala-His-D-Phe-Arg-Trp-Cys)-NH2]	–	–	–	1020	–	–	–	–	Ki (hMC5-R [1]; Ki hMC5-R, Table 5): 352 nM
CC(=O)N[C@H]1CSSC[C@@H](C(N)=O)NC(=O)[C@H](C)NC(=O)[C@H](Cc2c[nH]c3ccccc23)NC(=O)[C@H](CCCNC(=N)N)NC(=O)[C@@H](Cc2ccccc2)NC(=O)[C@H](Cc2c[nH]cn2)NC(=O)[C@@H](C)NC1=O [Ac-c(Cys-D-Ala-His-D-Phe-Arg-Trp-Ala-Cys)-NH2] (Ac-C[dA]H[dF]RWAC-NH2; disulfide 1-8 (inferred))	–	–	–	–	–	–	–	–	Ki (hMC5-R [1]; Table 5, read-out: Ki hMC5-R): > 10000 nM
CCCC[C@H](NC(C)=O)C(=O)N[C@H]1CSSC[C@@H](C(N)=O)NC(=O)CCCCNC(=O)[C@H](Cc2c[nH]c3ccccc23)NC(=O)[C@H](CCCNC(=N)N)NC(=O)[C@@H](Cc2ccccc2)NC(=O)[C@H](Cc2c[nH]cn2)NC1=O [Ac-Nle-c(Cys-His-D-Phe-Arg-Trp-Apn-Cys)-NH2] (Ac-[Nle]CH[dF]RW[Ava]C-NH2; disulfide 2-8)	–	–	–	–	0.76	0.199	0.0492	1.73	–
CC(=O)N[C@H]1CSSC[C@@H](C(=O)N2CCC[C@H]2C(=O)N2CCC[C@H]2C(=O)N[C@@H](CCCCN)C(=O)N[C@@H](CC(=O)O)C(=O)NCCC(=O)NCC(=O)N[C@@H](CCCNC(=N)N)C(=O)N[C@@H](CCCNC(=N)N)C(=O)N[C@@H](CCCCN)C(=O)N[C@@H](CCCNC(=N)N)C(=O)N[C@@H](CCCNC(=N)N)C(=O)N[C@@H](CCC(N)=O)C(=O)N[C@@H](CCCNC(=N)N)C(=O)N[C@@H](CCCNC(=N)N)C(=O)N[C@@H](CCCNC(=N)N)C(N)=O)NC(=O)[C@H](C)NC(=O)[C@H](Cc2csc3ccccc23)NC(=O)[C@H](CCCNC(=N)N)NC(=O)[C@@H](Cc2ccc3ccccc3c2)NC(=O)[C@H](Cc2c[nH]cn2)NC(=O)[C@H](CCC(=O)O)NC1=O	33.8	93.6	4.42	89.5	–	–	–	–	–
CCCC[C@H](N)C(=O)N[C@H]1CSSC[C@@H](C(N)=O)NC(=O)CCCCNC(=O)[C@H](Cc2c[nH]c3ccccc23)NC(=O)[C@H](CCCNC(=N)N)NC(=O)[C@@H](Cc2ccccc2)NC(=O)[C@H](Cc2c[nH]cn2)NC1=O [Nle-c(Cys-His-D-Phe-Arg-Trp-Apn-Cys)-NH2] (H-[Nle]CH[dF]RW[Ava]C-NH2; disulfide 2-8)	–	–	–	–	0.31	0.27	0.018	3.1	–
CC(=O)N[C@@H](CCCNC(=N)N)C(=O)N[C@H]1CSSC(C)(C)[C@@H](C(N)=O)NC(=O)[C@H](Cc2c[nH]c3ccccc23)NC(=O)[C@H](CCCNC(=N)N)NC(=O)[C@@H](Cc2ccccc2)NC(=O)[C@H](Cc2c[nH]cn2)NC(=O)[C@@H](C)NC1=O [Ac-Arg-c(Cys-D-Ala-His-D-Phe-Arg-Trp-Pen)-NH2]	48.3	–	–	10000	–	–	–	–	EC50 (hMC3-R): 13.3 nM; EC50 (hMC4-R): 0.79 nM
CC(=O)N[C@H]1CSSC[C@@H](C(=O)N2CCC[C@H]2C(=O)N2CCC[C@H]2C(=O)N[C@@H](CCCCN)C(=O)N[C@@H](CC(=O)O)C(=O)NCCC(=O)N[C@@H](Cc2ccc(O)cc2)C(=O)NC(C)(C)C(=O)N[C@@H](CCCNC(=N)N)C(=O)N[C@@H](CCCCN)C(=O)N[C@@H](CCCCN)C(=O)N[C@@H](CCCNC(=N)N)C(=O)N[C@@H](CCCNC(=N)N)C(=O)N[C@@H](CCC(N)=O)C(=O)N[C@@H](CCCNC(=N)N)C(=O)N[C@@H](CCCNC(=N)N)C(=O)N[C@@H](CCCNC(=N)N)C(N)=O)NC(=O)[C@H](C)NC(=O)[C@H](Cc2csc3ccccc23)NC(=O)[C@H](CCCNC(=N)N)NC(=O)[C@@H](Cc2ccc3ccccc3c2)NC(=O)[C@H](Cc2c[nH]cn2)NC(=O)[C@H](CCC(=O)O)NC1=O	–	–	–	–	–	–	–	–	EC50 (hMC1-R; cAMP, CHO-K1 cells expressing hMC1-R, read-out: EC50 hMC1-R): 67.1 nM; Kb (hMC3-R; antagonist potency by Schild analysis, cAMP, CHO-K1 cells expressing hMC3-R, read-out: Kb hMC3-R): 439 nM; Kb (hMC4-R; antagonist potency by Schild analysis, cAMP, CHO-K1 cells expressing hMC4-R, read-out: Kb hMC4-R): 46.5 nM; EC50 (hMC5-R [2]; cAMP, CHO-K1 cells expressing hMC5-R, read-out: EC50 hMC5-R): 582 nM
CCCC[C@H](NC(C)=O)C(=O)N[C@H]1CC(=O)NCCCC[C@@H](C(N)=O)NC(=O)[C@H](Cc2csc3ccccc23)NC(=O)[C@H](CCCNC(=N)N)NC(=O)[C@@H](Cc2ccccc2)NC(=O)[C@H](Cc2c[nH]cn2)NC(=O)[C@@H](C)NC1=O [Ac-Nle-c(Asp-D-Ala-His-D-Phe-Arg-Bal-Lys)-NH2] (Ac-[Nle]D[dA]H[dF]R[Bta]K-NH2; lactam 2-8)	–	–	–	–	0.931	3.22	1.65	> 10000	–
CC(=O)N[C@H]1CSSC[C@@H](C(=O)N2CCC[C@H]2C(=O)N2CCC[C@H]2C(=O)N[C@@H](CCCNC(=N)N)C(=O)N[C@@H](CC(=O)O)C(=O)NCCC(=O)N[C@@H](CCCNC(=N)N)C(=O)N[C@@H](CCCNC(=N)N)C(=O)N[C@@H](CCCNC(=N)N)C(=O)N[C@@H](CCCNC(=N)N)C(=O)N[C@@H](CCCNC(=N)N)C(=O)N[C@@H](CCCNC(=N)N)C(=O)N[C@@H](CCC(N)=O)C(=O)N[C@@H](CCCNC(=N)N)C(=O)N[C@@H](CCCNC(=N)N)C(=O)N[C@@H](CCCNC(=N)N)C(N)=O)NC(=O)[C@H](C)NC(=O)[C@H](Cc2csc3ccccc23)NC(=O)[C@H](CCCNC(=N)N)NC(=O)[C@@H](Cc2ccc3ccccc3c2)NC(=O)[C@H](Cc2c[nH]cn2)NC(=O)[C@H](CCC(=O)O)NC1=O (Ac-CEH[d2Nal]R[Bta]ACPPRD[βAla]RRRRRRQRRR-NH2; disulfide 1-8)	86.1	41.7	19.4	2360	–	–	–	–	–
